Laboratory results as given in patent US20220402862A1 (Intellia Therapeutics, Inc., priority 2019, published 2022).

Legend:
[1] = RNA encapsulation efficiency of LNPs (Ribogreen fluorescence assay); format: physicochemical; conditions: LNP, sg:mRNA 1:1, N/P about 6, amine lipid/DSPC/cholesterol/PEG-2k-DMG 50/9/38/3; Table 2, Experiments 2-20
Method: A fluorescence-based assay (Ribogreen®, ThermoFisher Scientific) is used to determine total RNA concentration and free RNA. Encapsulation efficiency is calculated as (Total RNA-Free RNA)/Total RNA. LNP samples are diluted appropriately with 1× TE buffer containing 0.2% Triton-X 100 to determine total RNA or 1× TE buffer to determine free RNA. Standard curves are prepared by utilizing the starting RNA solution used to make the compositions and diluted in 1× TE buffer +/− 0.2% Triton-X 100. Diluted RiboGreen® dye (according to the manufacturer's instructions) is then added to each of the standards and samples and allowed to incubate for approximately 10 minutes at room temperature, in the absence of light. A SpectraMax M5 Microplate Reader (Molecular Devices) is used to read the samples with excitation, auto cutoff and emission wavelengths set to 488 nm, 515 nm, and 525 nm respectively. Total RNA and free RNA are determined from the appropriate standard curves.
Encapsulation efficiency is calculated as (Total RNA-Free RNA)/Total RNA. The same procedure may be used for determining the encapsulation efficiency of a DNA-based cargo component. In a fluorescence-based assay, for single-strand DNA Oligreen Dye may be used, and for double-strand DNA, Picogreen Dye. Alternatively, the total RNA concentration can be determined by a reverse-phase ion-pairing (RP-IP) HPLC method. Triton X-100 is used to disrupt the LNPs, releasing the RNA. The RNA is then separated from the lipid components chromatographically by RP-IP HPLC and quantified against a standard curve using UV absorbance at 260 nm.

[2] = Dynamic light scattering of LNPs: Z-average diameter, number average diameter, PDI; format: physicochemical; conditions: LNP, sg:mRNA 1:1, N/P about 6, 50/9/38/3; Table 2, Experiments 2-20
Method: Dynamic Light Scattering (“DLS”) is used to characterize the polydispersity index (“PDI”) and size of the LNPs of the present disclosure. DLS measures the scattering of light that results from subjecting a sample to a light source. PDI, as determined from DLS measurements, represents the distribution of particle size (around the mean particle size) in a population, with a perfectly uniform population having a PDI of zero.
LNP compositions are analyzed for average particle size, polydispersity index (PDI), total RNA content, encapsulation efficiency of RNA, and zeta potential. LNP compositions may be further characterized by lipid analysis, AF4-MALS, NTA, and/or cryo-EM. Average particle size and polydispersity are measured by dynamic light scattering (DLS) using a Malvern Zetasizer DLS instrument or Wyatt NanoStar. LNP samples were diluted with PBS buffer prior to being measured by DLS. Z-average diameter which is an intensity-based measurement of average particle size is reported along with number average diameter and PDI. A Malvern Zetasizer or Wyatt NanoStar instrument is also used to measure the zeta potential of the LNP. Samples are diluted 1:17 (50 μL into 800 μL) in 0.1× PBS, pH 7.4 prior to measurement.

Transthyretin (TTR) = assay: Serum TTR ELISA in mice after LNP dosing; format: in vivo, CD-1 female mice; conditions: guide G282 experiments; for Serum TTR % TSS: mouse serum TTR relative to TSS control; for Serum TTR: mouse serum, ELISA
Method: CD-1 female mice ranging from 6-10 weeks of age were used in each study. Animals were weighed and grouped according to body weight for preparing dosing solutions based on group average weight. LNPs were dosed via the lateral tail vein in a volume of 0.2 mL per animal (approximately 10 mL per kilogram body weight). The animals were periodically observed for adverse effects for at least 24 hours post dose. For studies measuring in vivo editing in liver, CD-1 female mice were dosed at 0.1 mg/kg unless otherwise noted. Animals were euthanized at 6 or 7 days by ex sanguination via cardiac puncture under isoflurane anesthesia. Liver tissue was collected from each animal for DNA extraction and analysis. Blood was collected into serum separator tubes or into tubes containing buffered sodium citrate for plasma as described herein. Cohorts of mice were measured for editing by Next-Generation Sequencing (NGS).
Blood was collected and the serum was isolated as indicated. The total mouse TTR serum levels were determined using a Mouse Prealbumin (Transthyretin) ELISA Kit (Aviva Systems Biology, Cat. OKIA00111). Briefly, sera were serial diluted with kit sample diluent to a final dilution of 10,000-fold for 0.1 mg/kg dose and final dilutions of 10,000-fold and of 2,500-fold for 0.3 mg/kg. This diluted sample was then added to the ELISA plates and the assay was carried out according to the manufacturer's directions.

[3] = pKa measurement of unformulated amine lipid (fluorescence, method of Jayaraman et al.); format: physicochemical; conditions: 100 μM in 0.1 M phosphate buffer, pH 2.0-12.0
Method: The pKa of each amine lipid was determined according to the method in Jayaraman, et al. (Angewandte Chemie, 2012) with the following adaptations. […] Lipid was diluted to 100 μM in 0.1 M phosphate buffer (Boston Bioproducts) where the pH ranged from 2.0-12.0. Fluorescence intensity was measured using excitation and emission wavelengths of 321 nm and 448 nm.

Structure (SMILES) | Encapsulation (%) [1] | Number mean (nm) [2] | PDI [2] | Z-avg (nm) [2] | Serum TTR % TSS (Transthyretin (TTR)) | Serum TTR (Transthyretin (TTR)) | pKa [3]
CCCCC/C=C\C/C=C\CCCCCCCC(=O)OCC(COC(=O)CCC(OCCCCCCCC)OCCCCCCCC)COC(=O)OCCN(C)C (stereo not drawn) [Compound 18, 3-((4,4-bis(octyloxy)butanoyl)oxy)-2-((((2-(dimethylamino)ethoxy)carbonyl)oxy)methyl)propyl (9Z,12Z)-octadeca-9,12-dienoate] | 97% | 48.22 nm | 0.090 | 68.72 nm | 82% | 849 µg/mL | 
CCCCC/C=C\C/C=C\CCCCCCCC(=O)OCC(COC(=O)CCC(OCCCCCCCC)OCCCCCCCC)COC(=O)OCCCN(C)CC (stereo not drawn) [Compound 20, 3-((4,4-bis(octyloxy)butanoyl)oxy)-2-((((3-(ethyl(methyl)amino)propoxy)carbonyl)oxy)methyl)propyl (9Z,12Z)-octadeca-9,12-dienoate] | 96% | 64.34 nm | 0.023 | 79.25 nm | 46% | 476 µg/mL | 
CCCCC/C=C\C/C=C\CCCCCCCC(=O)OCC(COC(=O)CCC(OCCCCCCCC)OCCCCCCCC)COC(=O)OCCCN(C(C)C)C(C)C (stereo not drawn) [Compound 21, 3-((4,4-bis(octyloxy)butanoyl)oxy)-2-((((3-(diisopropylamino)propoxy)carbonyl)oxy)methyl)propyl (9Z,12Z)-octadeca-9,12-dienoate] | 94% | 59.75 nm | 0.039 | 75.41 nm | 87% | 897 µg/mL | 
CCCCC/C=C\C/C=C\CCCCCCCC(=O)OCC(COC(=O)CCC(OCCCCCCCC)OCCCCCCCC)COC(=O)OCCC(C)N(C)C (stereo not drawn) [Compound 22, 3-((4,4-bis(octyloxy)butanoyl)oxy)-2-((((3-(dimethylamino)butoxy)carbonyl)oxy)methyl)propyl (9Z,12Z)-octadeca-9,12-dienoate] | 98% | 73.96 nm | 0.004 | 89.43 nm | 61% | 634 µg/mL | 
CCCCC/C=C\C/C=C\CCCCCCCC(=O)OCC(COC(=O)CCC(OCCCCCCCC)OCCCCCCCC)COC(=O)OCCCN1CCCCCC1 (stereo not drawn) [Compound 23, 3-(((3-(azepan-1-yl)propoxy)carbonyl)oxy)-2-(((4,4-bis(octyloxy)butanoyl)oxy)methyl)propyl (9Z,12Z)-octadeca-9,12-dienoate] | 95% | 56.62 nm | 0.068 | 74.78 nm | 83% | 716 µg/mL | 
CCCCC/C=C\C/C=C\CCCCCCCC(=O)OCC(COC(=O)CCC(OCCCCCCCC)OCCCCCCCC)COC(=O)C1(C)CCN(C)C1 (stereo not drawn) [Compound 30, 3-((4,4-bis(octyloxy)butanoyl)oxy)-2-((((9Z,12Z)-octadeca-9,12-dienoyl)oxy)methyl)propyl 1,3-dimethylpyrrolidine-3-carboxylate] |  |  |  |  |  |  | 6.06
CCCCC/C=C\C/C=C\CCCCCCCC(=O)OCC(COC(=O)CCC(OCCCCCCCC)OCCCCCCCC)COC(=O)N(C)CCN(CC)CC (stereo not drawn) [Compound 33, 3-((4,4-bis(octyloxy)butanoyl)oxy)-2-((((2-(diethylamino)ethyl)(methyl)carbamoyl)oxy)methyl)propyl (9Z,12Z)-octadeca-9,12-dienoate] |  |  |  |  |  |  | 6.03
CCCCC/C=C\C/C=C\CCCCCCCC(=O)OCC(COC(=O)CCC(OCCCCCCCC)OCCCCCCCC)COC(=O)NCCN(C)C (stereo not drawn) [Compound 34, 3-((4,4-bis(octyloxy)butanoyl)oxy)-2-((((2-(dimethylamino)ethyl)carbamoyl)oxy)methyl)propyl (9Z,12Z)-octadeca-9,12-dienoate] |  |  |  |  |  |  | 7.84
CCCCC/C=C\C/C=C\CCCCCCCC(=O)OCC(COC(=O)CCC(OCCCCCCCC)OCCCCCCCC)COC(=O)NCCN(C)CC (stereo not drawn) [Compound 35, 3-((4,4-bis(octyloxy)butanoyl)oxy)-2-((((2-(ethyl(methyl)amino)ethyl)carbamoyl)oxy)methyl)propyl (9Z,12Z)-octadeca-9,12-dienoate] |  |  |  |  |  |  | 7.39
CCCCC/C=C\C/C=C\CCCCCCCC(=O)OCC(COC(=O)CCC(OCCCCCCCC)OCCCCCCCC)COC(=O)NCC1CCN(C)C1 (stereo not drawn) [Compound 43, 3-((4,4-bis(octyloxy)butanoyl)oxy)-2-(((((1-methylpyrrolidin-3-yl)methyl)carbamoyl)oxy)methyl)propyl (9Z,12Z)-octadeca-9,12-dienoate] |  |  |  |  |  |  | 8.6
CCCCC/C=C\C/C=C\CCCCCCCC(=O)OCC(COC(=O)CCC(OCCCCCCCC)OCCCCCCCC)COC(=O)NCCCN1CCC(O)CC1 (stereo not drawn) [Compound 46, 3-((4,4-bis(octyloxy)butanoyl)oxy)-2-((((3-(4-hydroxypiperidin-1-yl)propyl)carbamoyl)oxy)methyl)propyl (9Z,12Z)-octadeca-9,12-dienoate] |  |  |  |  |  |  | 8.9
CCCCC/C=C\C/C=C\CCCCCCCC(=O)OCC(COC(=O)CCC(OCCCCCCCC)OCCCCCCCC)COC(=O)NCCN1CCC(O)CC1 (stereo not drawn) [Compound 49, 3-((4,4-bis(octyloxy)butanoyl)oxy)-2-((((2-(4-hydroxypiperidin-1-yl)ethyl)carbamoyl)oxy)methyl)propyl (9Z,12Z)-octadeca-9,12-dienoate] |  |  |  |  |  |  | 8.4
CCCCC/C=C\C/C=C\CCCCCCCC(=O)OCC(COC(=O)CCC(OCCCCCCCC)OCCCCCCCC)COC(=O)OCC1CN(CC)C1 (stereo not drawn) [Compound 50, 3-((4,4-bis(octyloxy)butanoyl)oxy)-2-(((((1-ethylazetidin-3-yl)methoxy)carbonyl)oxy)methyl)propyl (9Z,12Z)-octadeca-9,12-dienoate] |  |  |  |  |  |  | 5.2
CCCCCCCCOC(CCC(=O)OCC(COC(=O)CCCCCCCC(=O)OCCCCCC)COC(=O)OCCCN(CC)CC)OCCCCCCCC (stereo not drawn) [Compound 57, 1-(3-((4,4-bis(octyloxy)butanoyl)oxy)-2-((((3-(diethylamino)propoxy)carbonyl)oxy)methyl)propyl) 9-hexyl nonanedioate] | 89% | 83.41 nm | 0.011 | 102 nm |  |  | 6.59
CCCCCCCCCCOC(=O)CCCCCCCC(=O)OCC(COC(=O)CCC(OCCCCCCC)OCCCCCCC)COC(=O)OCCCN(CC)CC (stereo not drawn) [Compound 78, 1-(3-((4,4-bis(heptyloxy)butanoyl)oxy)-2-((((3-(diethylamino)propoxy)carbonyl)oxy)methyl)propyl) 9-decyl nonanedioate] |  |  |  |  |  |  | 6.11
CCCCCCCCCCOC(=O)CCCCCCCC(=O)OCC(COC(=O)CCCCCC(=O)OC(CCCCCCCC)CCCCCCCC)COC(=O)NCCN(CC)CC (stereo not drawn) [Compound 81, 1-decyl 9-(3-(((2-(diethylamino)ethyl)carbamoyl)oxy)-2-(((7-(heptadecan-9-yloxy)-7-oxoheptanoyl)oxy)methyl)propyl) nonanedioate] |  |  |  |  |  |  | 6.65
